Reference: patent publication US7550459B2, “Tetrahydroquinoline analogues as muscarinic agonists” (Acadia Pharmaceuticals, Inc., priority 2001, dated 2009)
Read-outs that look alike come from different tables or passages of the source.

How the values were obtained:
M2 muscarinic receptor = biological target: T1, M2 muscarinic receptor (Homo sapiens, UniProt P08172); test: Receptor Selection and Amplification (R-SAT) assay, cloned M2 receptor; type: cell-based; set-up: M2 Eff: scale not given here
T1 construct: expressed in transfected cells
T1 sequence (P08172 1-466): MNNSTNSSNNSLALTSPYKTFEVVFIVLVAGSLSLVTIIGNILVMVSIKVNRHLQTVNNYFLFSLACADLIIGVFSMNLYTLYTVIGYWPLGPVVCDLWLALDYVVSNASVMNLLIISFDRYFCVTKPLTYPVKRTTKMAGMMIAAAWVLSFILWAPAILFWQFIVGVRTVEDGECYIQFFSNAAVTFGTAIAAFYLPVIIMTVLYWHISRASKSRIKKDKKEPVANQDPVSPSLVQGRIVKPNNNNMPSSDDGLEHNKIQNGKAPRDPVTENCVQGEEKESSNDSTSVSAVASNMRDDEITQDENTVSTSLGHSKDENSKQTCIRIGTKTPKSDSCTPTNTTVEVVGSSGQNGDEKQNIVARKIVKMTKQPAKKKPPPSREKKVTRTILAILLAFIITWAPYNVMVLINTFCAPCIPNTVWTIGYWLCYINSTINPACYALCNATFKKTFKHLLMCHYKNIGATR
Description: (§1) The EC50 for an agonist is intended to denote the concentration of a compound needed to achieve 50% of a maximal response seen in an in vitro assay such as R-SAT. For inverse agonists, EC50 is intended to denote the concentration of a compound needed to achieve 50% inhibition of an R-SAT response from basal, no compound, levels.
(§2) A particularly convenient functional assay system is the receptor selection and amplification assay (R-SAT assay) in U.S. Pat. No. 5,707,798, which describes a method of screening for bioactive compounds by utilizing the ability of cells transfected with receptor DNA, e.g., coding for the different muscarinic subtypes, to amplify in the presence of a ligand of the receptor. Cell amplification is detected as increased levels of a marker also expressed by the cells.
(§3) Receptor Selection and Amplification (R-SAT) assays were carried out using the cloned M1-M5 receptors essentially as described in: Brauner-Osborne H, Brann M R. Pharmacology of muscarinic acetylcholine receptor subtypes (m1-m5): high throughput assays in mammalian cells. Eur J Pharmacol Jan. 4, 1996;295(1):93-102, and Spalding T A, Trotter C, Skjaerbaek N, Messier T L, Currier E A, Burstein E S, Li D, Hacksell U, Brann M R. Discovery of an ectopic activation site on the M(1) muscarinic receptor. Mol Pharmacol. 2002 June;61(6):1297-302.

M1 muscarinic receptor = biological target: T2, M1 muscarinic receptor (Homo sapiens, UniProt P11229); test: Receptor Selection and Amplification (R-SAT) assay, cloned M1 receptor; type: cell-based; set-up: M1 Eff: scale not given here; conditions: for Emax: read-out: m1 % Efficacy
T2 construct: expressed in transfected cells
T2 sequence (P11229 1-460): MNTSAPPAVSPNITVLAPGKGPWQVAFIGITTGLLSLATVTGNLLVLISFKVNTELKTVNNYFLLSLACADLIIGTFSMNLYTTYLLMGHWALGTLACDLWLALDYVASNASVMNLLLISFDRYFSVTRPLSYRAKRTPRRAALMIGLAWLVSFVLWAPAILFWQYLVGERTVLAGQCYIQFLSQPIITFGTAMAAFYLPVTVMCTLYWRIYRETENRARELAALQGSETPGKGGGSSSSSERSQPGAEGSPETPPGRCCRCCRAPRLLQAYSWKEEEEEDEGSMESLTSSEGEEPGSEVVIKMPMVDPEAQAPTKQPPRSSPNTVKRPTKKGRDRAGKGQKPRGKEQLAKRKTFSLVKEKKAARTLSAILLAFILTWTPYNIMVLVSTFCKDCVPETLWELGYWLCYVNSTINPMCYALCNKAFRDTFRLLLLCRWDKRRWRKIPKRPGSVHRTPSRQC
Description: as §1, §2, §3

[1] = R-SAT, second table (COMPOUND ID series)
[2] = R-SAT, second table (COMPOUND ID series), read-out: M2 pEC50 (converted)
[3] = R-SAT, second table (COMPOUND ID series), read-out: M1 pEC50 (converted)
[4] = R-SAT, cloned m1 receptor, read-out: m1 pEC50 (converted)
[5] = M2 pEC50, R-SAT, second table (COMPOUND ID series)
[6] = M1 pEC50, R-SAT, second table (COMPOUND ID series)
[7] = m1 pEC50, R-SAT, cloned m1 receptor

Compound	M2 Eff (M2 muscarinic receptor; [1])	M1 Eff (M1 muscarinic receptor; [1])	EC50 (M1 muscarinic receptor; [3]) [µM]	EC50 (M1 muscarinic receptor; [6]) [µM]	also measured
O=C1COc2cc(F)ccc2N1CCCN1CCC(OCC2CC2)CC1 [Compound 00262469, 4-[3-(4-Cyclopropylmethoxypiperidin-1-yl)propyl]-7-fluoro-4H-benzo[1,4]oxazin-3-one]	73	98	0.0631	–	EC50 (M2 muscarinic receptor; [2]): 0.501 µM
CCCCC1CCN(CCCN2C(=O)CCc3c2ccc(F)c3C)CC1 [Compound 107LH95-1, 1-[3-(4-Butyl-piperidin-1-yl)propyl]-6-fluoro-5-methyl-3,4-dihydro-1H-quinolin-2-one]	–	–	–	–	Emax (M1 muscarinic receptor; R-SAT, cloned m1 receptor): 103%; EC50 (M1 muscarinic receptor; [4]): 0.0251 µM
CCCCC1CCN(CCCN2C(=O)COc3ccc(C(C)=O)cc32)CC1 [Compound 64LHY89-5, 6-Acetyl-4-[3-(4-butyl-piperidin-1-yl)-propyl]-4H-benzo[1,4]oxazin-3-one]	–	–	–	–	Emax (M1 muscarinic receptor; R-SAT, cloned m1 receptor): 45%; EC50 (M1 muscarinic receptor; [4]): 2.51 µM
O=C1COc2ccccc2N1CCCN1CCC(OCC2CC2)CC1 [Compound 00262922, 4-[3-(4-Cyclopropylmethoxypiperidin-1-yl)propyl]-4H-benzo[1.4]oxazin-3-one]	40	84	0.0794	–	EC50 (M2 muscarinic receptor; [2]): 1.26 µM
CC(CN1C(=O)COc2ccccc21)CN1[C@@H]2CC[C@H]1C[C@@H](OCC1CC1)C2 (mixture of isomers) [Compound 00262573, (R,S)-4-[3-(3a-Cyclopropylmethoxy-8-azabicyclo[3.2.1]oct-8-yl)-2-methylpropyl]-4H-benzo[1.4]oxazin-3-one]	72	120	–	0.00398	EC50 (M2 muscarinic receptor; [5]): 0.0501 µM
CC(CN1CCC(OCC2CCC2)CC1)CN1C(=O)COc2ccccc21 (racemic) [Compound 00262197, 4-[(R,S)-3-(4-Cyclobutylmethoxypiperidin-1-yl)-2-methylpropyl]-4H-benzo[1.4]oxazin-3-one]	28	122	0.158	–	EC50 (M2 muscarinic receptor; [2]): 2.51 µM
CCCCCC1CC2CC[C@@H](C1)N2C[C@@H](C)CN1C(=O)COc2cc(F)ccc21 (stereo partly drawn) [Compound 112KK20-c5, (R,S)-7-Fluoro-4-[2-methyl-3-(3-pentyl-8-azabicyclo[3.2.1]oct-8-yl)propyl]-4H-benzo[1,4]oxazin-3-one]	–	–	–	–	EC50 (M1 muscarinic receptor; [7]): 0.00501 µM; Emax (M1 muscarinic receptor): 117%
CCON=C1CC2CCC(C1)N2C[C@@H](C)CN1C(=O)COc2ccccc21 (single isomer, unassigned) [Compound 00261434]	50	110	–	0.631	EC50 (M2 muscarinic receptor; [5]): 2 µM
COCCC1CC2CCC(C1)N2CC(C)CN1C(=O)COc2ccccc21 [Compound 00263025, (R)-4-{3-[3a-(2-Methoxyethyl)-8-azabicyclo[3.2.1]oct-8-yl]-2-methylpropyl}-4H-benzo[1.4]oxazin-3-one]	123	116	–	0.00316	EC50 (M2 muscarinic receptor; [5]): 0.158 µM
O=C1CCc2cc(F)c(F)cc2N1CCCN1C2CCC1CC(=CCOCC1CC1)C2 [Compound 00262356, 1-{3-[3-(2-Cyclopropylmethoxyethylidene)-8-azabicyclo[3.2.1]oct-8-yl]-propyl}-6,7-difluoro-3,4-dihydro-1H-quinolin-2-one]	–	46	–	0.0316	–
O=C1COc2cc(F)c(F)cc2N1CCCN1[C@@H]2CC[C@H]1C[C@@H](OCC1CC1)C2 [Compound 00262569, 4-[3-(3a-Cyclopropylmethoxy-8-azabicyclo[3.2.1]oct-8-yl)propyl]-6.7-difluoro-4H-benzo[1.4]oxazin-3-one]	42	97	–	0.00631	EC50 (M2 muscarinic receptor; [5]): 0.0501 µM
CCCC[C@]1(O)C[C@H]2CC[C@@H](C1)N2C[C@@H](C)CN1C(=O)COc2ccccc21 [Compound 00261478, (R)-4-[3-(3β-Butyl-3a-hydroxy-8-aza-bicyclo[3.2.1]oct-8-yl)-2-methyl-propyl]-1H-benzo[1,4]oxazin-3-one]	40	105	1.58	–	EC50 (M2 muscarinic receptor; [2]): 1.26 µM
CCCC=C1CC2CCC(C1)N2CCCN1C(=O)COc2ccccc21 [Compound 81MF24, 4-[3-(3-Butylidene-8-aza-bicyclo[3.2.1]oct-8-yl)-propyl]-4H-benzo[1,4]oxazin-3-one]	–	–	–	–	EC50 (M2 muscarinic receptor; m2 pEC50, R-SAT, cloned m2 receptor): 0.1 µM; Emax (M2 muscarinic receptor; read-out: m2 % Efficacy): 70%; EC50 (M1 muscarinic receptor; [7]): 0.0158 µM; Emax (M1 muscarinic receptor): 96%
CCCCC1CCN(CCCN2CCCc3ccc(C(F)(F)F)cc32)CC1 [Compound 55LH54, 1-[3-(4-Butyl-piperidin-1-yl)-propyl]-7-trifluoromethyl-12.3.4-tetrahydro-quinoline]	–	–	–	–	Emax (M1 muscarinic receptor; R-SAT, cloned m1 receptor): 57%; EC50 (M1 muscarinic receptor; [4]): 0.398 µM
COCC[C@H]1C[C@H]2CC[C@@H](C1)N2C[C@H](C)CN1C(=O)COc2ccccc21 [Compound 00263035, (S)-4-{3-[3a-(2-Methoxyethyl)-8-azabicyclo[3.2.1]oct-8-yl]-2-methylpropyl}-4H-benzo[1.4]oxazin-3-one]	–	97	–	0.251	–
O=C1COc2c(F)cc(F)cc2N1CCCN1CCC(OCC2CC2)CC1 [Compound 00262874]	–	87	0.631	–	–
O=C1COc2ccc(F)c(F)c2N1CCCN1CCC(OCC2CC2)CC1 [Compound 00262696, 4-[3-(4-Cyclopropylmethoxypiperidin-1-yl)propyl]-5,6-difluoro-4H-benzo[1,4]oxazin-3-one]	–	83	0.631	–	–
CC(CN1CCC(OC(=O)OCC2CCC2)CC1)CN1C(=O)COc2ccccc21 (racemic) [Compound 00262198, carbonic acid cyclobutylmethyl ester 1-[(R,S)-2-methyl-3-(3-oxo-2,3-dihydrobenzo[1.4]oxazin-4-yl)propyl]piperidine-4-yl ester]	–	48	3.98	–	–
CCOCC[C@@H]1C[C@H]2CC[C@@H](C1)N2C[C@H](C)CN1C(=O)COc2ccccc21 [Compound 00263034, (S)-4-{3-[3β-(2-Ethoxyethyl)-8-azabicyclo[3.2.1]oct-8-yl]-2-methylpropyl}-4H-benzo[1.4]oxazin-3-one]	–	68	–	0.158	–
O=C1COc2c(F)ccc(F)c2N1CCCN1CCC(OCC2CC2)CC1 [Compound 00262869, 4-[3-(4-Cyclopropylmethoxypiperidin-1-yl)propyl]-5,8-difluoro-4H-benzo[1,4]oxazin-3-one]	–	32	1.58	–	–
O=C1COc2cc(F)cc(F)c2N1CCCN1CCC(OCC2CC2)CC1 [Compound 00262471, 4-[3-(4-Cyclopropylmethoxypiperidin-1-yl)propyl]-5,7-difluoro-4H-benzo[1,4]oxazin-3-one]	–	86	0.794	–	–
CCCC=C1CCN(C[C@@H](C)CN2C(=O)COc3ccc(OC)cc32)CC1 (racemic) [Compound 107LH74-3D, (R,S)-4-[3-(4-Butylidenepiperidin-1-yl)-2-methylpropyl]-6-methoxy-4H-benzo[1,4]oxazin-3-one]	–	–	–	–	m1 % Efficacy (M1 muscarinic receptor; R-SAT, cloned m1 receptor): 97%; m1 pEC50 (M1 muscarinic receptor; R-SAT, cloned m1 receptor): 8.0
CCOCCC1CC2CCC(C1)N2CC(C)CN1C(=O)COc2ccccc21 (single isomer, unassigned) [Compound 00262993]	–	55	–	0.0794	–
CC(CN1C(=O)COc2ccccc21)CN1C2CCC1CC(=CCOCC1CC1)C2 [Compound 00262357, 4-{(R,S)-3-[3-(2-Cyclopropylmethoxyethylidene)-8-aza-bicyclo[3.2.1]oct-8-yl]-2-methylpropyl}-4H-benzo[1.4]oxazin-3-one]	–	79	–	0.0126	–
